{"source": "ChEMBL document CHEMBL1201862", "about": "“PubChem BioAssay data set” (2004)", "key": {"[1]": {"target": "T1, Short transient receptor potential channel 4 (Mus musculus, UniProt Q9QUQ5)", "T1 sequence (Q9QUQ5 whole entry)": "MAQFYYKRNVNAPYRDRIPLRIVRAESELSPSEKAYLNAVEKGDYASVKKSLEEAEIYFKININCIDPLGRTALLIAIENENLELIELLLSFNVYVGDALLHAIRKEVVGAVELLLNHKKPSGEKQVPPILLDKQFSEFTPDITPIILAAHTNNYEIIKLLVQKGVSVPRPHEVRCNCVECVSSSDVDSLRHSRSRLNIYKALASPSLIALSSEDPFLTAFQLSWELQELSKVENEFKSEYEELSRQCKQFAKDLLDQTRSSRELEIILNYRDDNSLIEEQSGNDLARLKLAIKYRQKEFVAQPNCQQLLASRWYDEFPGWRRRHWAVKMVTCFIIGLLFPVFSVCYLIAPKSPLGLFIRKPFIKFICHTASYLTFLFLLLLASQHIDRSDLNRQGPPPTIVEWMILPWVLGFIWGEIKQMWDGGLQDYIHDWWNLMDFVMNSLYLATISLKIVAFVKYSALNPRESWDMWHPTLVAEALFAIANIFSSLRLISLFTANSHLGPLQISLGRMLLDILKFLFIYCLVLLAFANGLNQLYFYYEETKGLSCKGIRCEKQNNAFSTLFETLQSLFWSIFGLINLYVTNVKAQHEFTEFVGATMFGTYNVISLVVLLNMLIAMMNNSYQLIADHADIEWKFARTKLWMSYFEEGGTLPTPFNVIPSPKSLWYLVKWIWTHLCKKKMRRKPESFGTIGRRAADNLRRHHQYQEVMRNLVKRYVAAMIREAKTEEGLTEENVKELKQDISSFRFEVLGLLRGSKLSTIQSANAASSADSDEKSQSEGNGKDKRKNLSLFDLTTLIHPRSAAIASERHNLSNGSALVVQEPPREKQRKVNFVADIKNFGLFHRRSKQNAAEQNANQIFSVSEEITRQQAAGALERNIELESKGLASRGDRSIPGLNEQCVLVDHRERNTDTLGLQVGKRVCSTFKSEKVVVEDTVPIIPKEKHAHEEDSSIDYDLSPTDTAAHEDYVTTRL", "assay": "mouse TRPC4 channel inhibitors, dose response, cell-based, HEK293 TRPC4/mu-opioid, Fluo-4 calcium (AID 434942);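 further: potency of inhibitors blocking the TRPC4 calcium response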", "type": "functional"}, "[2]": {"test_system": "HeLa", "assay": "HeLa cell cytotoxicity, dose response, cytotoxicity control for MITF activator project, CellTiter-Glo luminescence, cherry-pick samples (AID 540259)", "type": "functional, cell-based", "details": "Homo sapiens"}, "[3]": {"target": "T2, Rac GTPase-activating protein 1 (Homo sapiens, UniProt Q9H0H5)", "T2 sequence (Q9H0H5 whole entry)": "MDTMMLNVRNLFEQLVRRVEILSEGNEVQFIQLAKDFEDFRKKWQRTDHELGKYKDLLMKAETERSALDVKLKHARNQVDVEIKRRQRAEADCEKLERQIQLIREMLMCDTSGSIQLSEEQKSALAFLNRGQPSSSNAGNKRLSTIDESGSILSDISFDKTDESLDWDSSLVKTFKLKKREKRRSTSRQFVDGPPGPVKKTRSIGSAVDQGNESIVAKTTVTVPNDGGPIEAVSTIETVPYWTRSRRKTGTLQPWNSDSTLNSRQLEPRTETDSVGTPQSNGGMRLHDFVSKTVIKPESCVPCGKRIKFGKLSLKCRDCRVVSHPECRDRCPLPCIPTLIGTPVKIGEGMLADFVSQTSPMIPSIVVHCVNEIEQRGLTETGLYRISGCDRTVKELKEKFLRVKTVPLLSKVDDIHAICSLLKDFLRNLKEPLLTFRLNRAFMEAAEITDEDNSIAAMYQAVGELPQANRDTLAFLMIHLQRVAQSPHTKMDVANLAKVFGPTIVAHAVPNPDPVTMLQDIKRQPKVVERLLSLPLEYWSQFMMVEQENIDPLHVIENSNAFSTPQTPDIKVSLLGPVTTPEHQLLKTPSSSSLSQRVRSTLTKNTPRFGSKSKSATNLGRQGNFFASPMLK", "assay": "MgcRacGAP GTPase-activating activity inhibitors, confirmation, biochemical, ADP Hunter fluorescence, primary and confirmatory (AID 624330)", "type": "functional"}, "[4]": {"target": "Glucose-6-phosphate 1-dehydrogenase (Homo sapiens, UniProt P11413)", "sequence (P11413 whole entry)": "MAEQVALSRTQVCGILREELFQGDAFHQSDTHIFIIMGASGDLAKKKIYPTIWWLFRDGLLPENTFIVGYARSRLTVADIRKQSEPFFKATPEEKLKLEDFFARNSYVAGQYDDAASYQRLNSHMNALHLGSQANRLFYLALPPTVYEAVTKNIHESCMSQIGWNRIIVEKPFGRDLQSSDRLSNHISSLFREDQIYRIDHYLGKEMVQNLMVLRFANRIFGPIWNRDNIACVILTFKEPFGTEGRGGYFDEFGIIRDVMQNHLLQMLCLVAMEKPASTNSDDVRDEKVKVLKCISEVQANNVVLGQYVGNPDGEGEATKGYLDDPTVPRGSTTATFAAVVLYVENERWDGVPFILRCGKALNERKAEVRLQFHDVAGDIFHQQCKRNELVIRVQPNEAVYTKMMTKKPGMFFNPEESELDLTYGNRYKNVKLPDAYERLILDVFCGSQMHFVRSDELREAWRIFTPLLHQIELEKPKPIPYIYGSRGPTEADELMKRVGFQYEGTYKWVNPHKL", "assay": "human G6PD enzyme inhibitors, dose response, selectivity assay for P. falciparum G6PD inhibitor project, biochemical, fluorescence (AID 504792)", "type": "functional"}, "[5]": {"assay": "Luminescence Cell-Based Dose Response HTS to Identify Activators of Luciferase Translation or Activity in H4 […] Cells. [Related pubchem assays: 1829 (Project Summary), 1814 (Primary HTS)]", "type": "functional"}, "[6]": {"assay": "Luminescence Cell-Based Dose Confirmation HTS to Identify Activators of 5'UTR Stem-Loop Driven Alpha-Synuclein mRNA Translation in H4 Neuroglioblastoma Cells. [Related pubchem assays: 1829 (Project Summary), 1814 (Primary HTS)]", "type": "functional"}, "[7]": {"test_system": "H4", "assay": "Luminescence Cell-Based Dose Response HTS to Identify Activators of 5'UTR Stem-Loop Driven Prion Protein mRNA Translation in H4 Neuroglioblastoma Cells. [Related pubchem assays: 1829 (Project Summary), 1814 (Primary HTS)]", "type": "functional", "details": "Homo sapiens"}, "[8]": {"assay": "microbe, parasite or virus in culture", "type": "functional", "details": "Mycobacterium tuberculosis"}, "[9]": {"assay": "growth suppression of PTEN-null colon cells, dose response, cell-based, HCT116 PTEN knockout (AID 1047);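 further: HCT116 colon tumor cells with PTEN knocked out; cells exposed to compound for 60 hours before readout; potency for loss of cell viability measured by luminescence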", "type": "functional"}, "[10]": {"assay": "growth suppression of beta-catenin-knockout colon cells, dose response, cell-based, HCT116, human colon tumor (AID 1045);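 further: HCT116 colon tumor cells with beta catenin knocked out; cells exposed to compound for 60 hours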", "type": "functional"}, "[11]": {"target": "Cytochrome P450 2D6 (Homo sapiens, UniProt P10635)", "sequence (P10635 whole entry)": "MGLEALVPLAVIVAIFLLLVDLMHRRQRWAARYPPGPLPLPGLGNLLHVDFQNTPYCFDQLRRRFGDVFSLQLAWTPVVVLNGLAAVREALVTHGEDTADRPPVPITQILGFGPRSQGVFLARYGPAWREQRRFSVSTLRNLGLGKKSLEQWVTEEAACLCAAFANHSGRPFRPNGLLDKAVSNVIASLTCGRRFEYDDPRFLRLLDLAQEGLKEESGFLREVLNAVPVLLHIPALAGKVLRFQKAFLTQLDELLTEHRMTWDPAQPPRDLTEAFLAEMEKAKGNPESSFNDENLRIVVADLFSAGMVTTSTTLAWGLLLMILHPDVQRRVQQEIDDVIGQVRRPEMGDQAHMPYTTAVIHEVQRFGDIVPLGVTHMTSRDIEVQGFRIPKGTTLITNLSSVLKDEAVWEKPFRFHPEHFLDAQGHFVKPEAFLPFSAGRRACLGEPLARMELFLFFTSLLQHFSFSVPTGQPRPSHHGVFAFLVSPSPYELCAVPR"}, "[12]": {"target": "Genome polyprotein (dengue virus type 2, UniProt P29990)", "sequence (P29990 2492-3391 limits assumed)": "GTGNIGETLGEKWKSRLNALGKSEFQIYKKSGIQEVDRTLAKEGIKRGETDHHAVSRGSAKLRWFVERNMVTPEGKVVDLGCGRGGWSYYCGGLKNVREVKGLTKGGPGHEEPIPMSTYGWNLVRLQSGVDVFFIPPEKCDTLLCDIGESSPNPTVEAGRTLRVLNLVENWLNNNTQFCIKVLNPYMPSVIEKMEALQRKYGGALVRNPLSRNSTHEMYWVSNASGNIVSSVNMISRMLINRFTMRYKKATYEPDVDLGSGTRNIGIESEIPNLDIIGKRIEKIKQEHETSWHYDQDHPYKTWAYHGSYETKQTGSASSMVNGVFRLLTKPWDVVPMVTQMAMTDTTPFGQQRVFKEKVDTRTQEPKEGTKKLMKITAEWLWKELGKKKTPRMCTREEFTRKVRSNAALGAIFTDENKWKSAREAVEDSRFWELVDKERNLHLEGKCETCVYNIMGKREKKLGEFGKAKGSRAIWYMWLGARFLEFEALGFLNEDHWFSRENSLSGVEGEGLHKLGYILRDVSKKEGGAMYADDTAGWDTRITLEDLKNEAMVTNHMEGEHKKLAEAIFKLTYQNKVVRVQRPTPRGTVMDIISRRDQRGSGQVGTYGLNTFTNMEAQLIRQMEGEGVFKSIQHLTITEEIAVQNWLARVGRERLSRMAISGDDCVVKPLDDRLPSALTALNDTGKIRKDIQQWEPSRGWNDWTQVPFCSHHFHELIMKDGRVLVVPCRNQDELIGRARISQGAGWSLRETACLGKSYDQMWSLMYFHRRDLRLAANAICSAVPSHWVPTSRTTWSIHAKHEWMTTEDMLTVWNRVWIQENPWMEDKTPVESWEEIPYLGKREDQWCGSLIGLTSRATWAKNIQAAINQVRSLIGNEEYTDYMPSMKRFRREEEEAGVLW", "assay": "Dengue-2 NS5 methyltransferase inhibitors, primary screen, biochemical, confirmation dose response (AID 588689)", "type": "functional"}, "[13]": {"test_system": "Vero", "assay": "cells", "type": "functional", "details": "Chlorocebus sabaeus"}}, "note": "The source made the active and inactive calls."}
{"smiles": "Cc1cccc(NC(=O)CSc2nnc(-c3cc(C)n(-c4ccccc4)c3C)o2)c1C", "values": [{"measurement": "EC50", "setting": "[1]", "value": "2.11 µM (active)"}]}
{"smiles": "Cc1cccc(-c2nnc3sc(-c4ccccc4)nn23)c1", "values": [{"measurement": "AC50", "setting": "[2]", "value": "189 µM (active)"}]}
{"smiles": "COc1cc(C=O)ccc1OCc1cccc(Br)c1", "values": [{"measurement": "AC50", "setting": "[2]", "value": "85.9 µM (active)"}]}
{"smiles": "Cn1c(=O)[nH]c(=O)c2c1nc(S)n2CCCc1ccccc1", "values": [{"measurement": "IC50", "setting": "[3]", "value": "19.7 µM (active)"}, {"measurement": "IC50", "setting": "[4]", "value": "> 80 µM (inactive)"}]}
{"smiles": "Cc1cccnc1NC(=O)Nc1cccc(Cl)c1", "values": [{"measurement": "AC50", "setting": "[2]", "value": "> 350 µM (inactive)"}]}
{"smiles": "N#CCCn1cc(CNCc2ccccc2)c(-c2cccc([N+](=O)[O-])c2)n1", "values": [{"measurement": "EC50", "setting": "[1]", "value": "3.76 µM (active)"}]}
{"smiles": "CCN(CC)C(=O)c1cc2sc3ccccc3c2s1", "values": [{"measurement": "AC50", "setting": "[2]", "value": "46.9 µM (active)"}]}
{"smiles": "CCN1CCN(c2nc(C)nc3c2sc(=S)n3C)CC1", "values": [{"measurement": "IC50", "setting": "[4]", "value": "> 80 µM (inactive)"}]}
{"smiles": "CC1CCC(NC(=O)c2ccc(NS(=O)(=O)c3ccc4[nH]c(O)nc4c3)cc2)CC1", "note": "(centres undefined)", "values": [{"measurement": "EC50", "setting": "[5]", "value": "27.8 µM (active)"}, {"measurement": "AC50", "setting": "[2]", "value": "53.8 µM (active)"}, {"measurement": "EC50", "setting": "[6]", "value": "23.4 µM (active)"}, {"measurement": "EC50", "setting": "[7]", "value": "8.97 µM (active)"}]}
{"smiles": "COc1ccc(-c2cn3cc(C)ccc3n2)cc1Br", "values": [{"measurement": "IC50", "setting": "[4]", "value": "> 80 µM (inactive)"}]}
{"smiles": "COc1cc(C(F)(F)F)nc2c(Br)c(C(C)(C)C)nn12", "values": [{"measurement": "EC50", "setting": "[1]", "value": "1.5 µM (active)"}]}
{"smiles": "CCOc1cc(CNCCCN2CCOCC2)cc(Br)c1OCC(=O)Nc1cccc(C(F)(F)F)c1", "values": [{"measurement": "CC50", "setting": "[8]", "value": "12.4 µM (active)"}, {"measurement": "EC50", "setting": "[1]", "value": "6.68 µM (active)"}, {"measurement": "EC50", "setting": "[9]", "value": "9.96 µM (active)"}, {"measurement": "EC50", "setting": "[10]", "value": "7.97 µM (active)"}, {"measurement": "AC50", "setting": "[11]", "value": "14.1 µM (inconclusive)"}]}
{"smiles": "CCOC(=O)C1(CC2CC2)CCN(Cc2cc(Cl)c(O)c(OC)c2)CC1", "values": [{"measurement": "EC50", "setting": "[1]", "value": "3.76 µM (active)"}]}
{"smiles": "Cc1cc(O)c(C(C)C)cc1N=Cc1ccc([N+](=O)[O-])cc1", "values": [{"measurement": "IC50", "setting": "[4]", "value": "44.4 µM (inactive)"}, {"measurement": "IC50", "setting": "[12]", "value": "90.1 µM (active)"}]}
{"smiles": "O=C(COc1cccc2cccnc12)N/N=C/c1cccn1-c1ccc(F)cc1", "values": [{"measurement": "CC50", "setting": "[13]", "value": "> 25 µM (active)"}]}
